Measured values: PubChem BioAssay AID330 (DTP/NCI, 2004)
Values joined by “and” are separate entries in the source; they are usually repeats but may differ in a detail not shown here. Identical values can stand only once. Toxic doses and inconclusive results are not listed.

Test system: P388 leukemia ip, CD2F1 mice, survival T/C
Assay: NCI In Vivo Anticancer Drug Screen. Data for tumor model P388 Leukemia (intraperitoneal) in CD2F1 (CDF1) mice
Conditions: endpoint: median survival time, higher = longer survival
In short: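 Mice carrying the transplanted tumor received test compound or vehicle. Survival was recorded in each group, and the value is the treated-group measurement divided by that of the vehicle-treated control group.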

[1] = dose: 25.0 mg/kg/injection, schedule: Q01DX009 (ip), vehicle: Klucel (hydroxypropylcellulose) (HPC)
[2] = dose: 50.0 mg/kg/injection, schedule: Q01DX009 (ip), vehicle: Klucel (hydroxypropylcellulose) (HPC)
[3] = dose: 100.0 mg/kg/injection, schedule: Q01DX009 (ip), vehicle: Klucel (hydroxypropylcellulose) (HPC)
[4] = dose: 50.0 mg/kg/injection, schedule: Q01DX005 (ip), vehicle: saline with Tween-80
[5] = dose: 100.0 mg/kg/injection, schedule: Q01DX005 (ip), vehicle: saline with Tween-80
[6] = dose: 200.0 mg/kg/injection, schedule: Q01DX005 (ip), vehicle: saline with Tween-80
[7] = dose: 100.0 mg/kg/injection, schedule: Q01DX001 (ip), vehicle: Klucel (hydroxypropylcellulose) (HPC)
[8] = dose: 200.0 mg/kg/injection, schedule: Q01DX001 (ip), vehicle: Klucel (hydroxypropylcellulose) (HPC)
[9] = dose: 50.0 mg/kg/injection, schedule: Q01DX009 (ip), vehicle: saline
[10] = dose: 200.0 mg/kg/injection, schedule: Q01DX009 (ip), vehicle: saline
[11] = dose: 60.0 mg/kg/injection, schedule: Q01DX005 (ip), vehicle: saline with Tween-80
[12] = dose: 120.0 mg/kg/injection, schedule: Q01DX005 (ip), vehicle: saline with Tween-80
[13] = dose: 240.0 mg/kg/injection, schedule: Q01DX005 (ip), vehicle: saline with Tween-80
[14] = dose: 25.0 mg/kg/injection, schedule: Q01DX009 (ip), vehicle: saline with Tween-80
[15] = dose: 50.0 mg/kg/injection, schedule: Q01DX009 (ip), vehicle: saline with Tween-80
[16] = dose: 12.5 mg/kg/injection, schedule: Q01DX009 (ip), vehicle: Klucel (hydroxypropylcellulose) (HPC)
[17] = dose: 100.0 mg/kg/injection, schedule: Q01DX009 (ip), vehicle: saline with Tween-80

O=C1c2ccccc2CCCC12OC2c1ccccn1 (stereo not drawn)
T/C [1]: 98 % of control
T/C [2]: 106 % of control
T/C [3]: 98 % of control

CC(=O)C[n+]1cccc(S)c1-c1ccccc1
T/C [4]: 97 % of control
T/C [5]: 105 % of control
T/C [6]: 97 % of control

O=C(Nc1ccc(Cl)c(Cl)c1)NN1CCCCCC1
T/C [4]: 103 % of control
T/C [5]: 103 % of control
T/C [6]: 101 % of control

CCn1c(Cl)c(/C=N/Nc2ccccc2[N+](=O)[O-])c2cc(/C=N/Nc3ccccc3[N+](=O)[O-])ccc21
T/C [7]: 87 % of control
T/C [8]: 93 % of control
T/C (dose: 400.0 mg/kg/injection, schedule: Q01DX001 (ip), vehicle: Klucel (hydroxypropylcellulose) (HPC)): 91 % of control

Cc1noc(N(C)C)c1C
T/C [9]: 102 % of control
T/C (dose: 100.0 mg/kg/injection, schedule: Q01DX009 (ip), vehicle: saline): 100 % of control
T/C [10]: 108 % of control

CC1NC(C)N2C(C)N12 (stereo not drawn)
T/C (dose: 25.0 mg/kg/injection, schedule: Q01DX001 (ip), vehicle: saline): 105 % of control
T/C (dose: 50.0 mg/kg/injection, schedule: Q01DX001 (ip), vehicle: saline): 104 % of control
T/C (dose: 100.0 mg/kg/injection, schedule: Q01DX001 (ip), vehicle: saline): 104 % of control

O=C(Nc1cccc(C2=NCCCN2)c1)Nc1ccc(NC(=O)Nc2cccc(C3=NCCCN3)c2)c(Cl)c1
T/C (dose: 0.6 mg/kg/injection, schedule: Q04DX003 (ip), vehicle: saline): 109 % of control
T/C (dose: 1.25 mg/kg/injection, schedule: Q04DX003 (ip), vehicle: saline): 109 % of control
T/C (dose: 2.5 mg/kg/injection, schedule: Q04DX003 (ip), vehicle: saline): 109 % of control
T/C (dose: 10.0 mg/kg/injection, schedule: Q04DX003 (ip), vehicle: saline with Tween-80): 170 % of control
T/C (dose: 20.0 mg/kg/injection, schedule: Q04DX003 (ip), vehicle: saline): 164 % of control
T/C (dose: 26.4 mg/kg/injection, schedule: Q04DX003 (ip), vehicle: saline with Tween-80): 183 % of control
T/C (dose: 40.0 mg/kg/injection, schedule: Q04DX003 (ip), vehicle: saline): 204 % of control

Cn1c(C(C)(C)OC(=O)Oc2ccccc2)cnc1[N+](=O)[O-]
T/C [3]: 96 % of control
T/C (dose: 200.0 mg/kg/injection, schedule: Q01DX009 (ip), vehicle: Klucel (hydroxypropylcellulose) (HPC)): 100 % of control

CCCCCCCCCCCCC(=O)N1CCOCC1
T/C (dose: 100.0 mg/kg/injection, schedule: Q04DX003 (ip), vehicle: saline with Tween-80): 100 % of control
T/C (dose: 200.0 mg/kg/injection, schedule: Q04DX003 (ip), vehicle: saline with Tween-80): 95 % of control
T/C (dose: 400.0 mg/kg/injection, schedule: Q04DX003 (ip), vehicle: saline with Tween-80): 110 % of control

O=C(/N=C1\N=Nc2nc(C(C(=O)c3cccc([N+](=O)[O-])c3Cl)c3nc4n(c3O)/C(=N/C(=O)Nc3ccc(Cl)cc3)N=N4)c(O)n21)Nc1ccc(Cl)cc1 (stereo not drawn)
T/C [11]: 99 % of control
T/C [12]: 100 % of control
T/C [13]: 97 % of control

O=C1NC(=O)C(F)[CH]([Ge](=[O])[O][Ge](=[O])[CH]2NC(=O)NC(=O)C2F)N1 (stereo not drawn)
T/C (dose: 30.0 mg/kg/injection, schedule: Q04DX002 (ip), vehicle: water): 100 % of control
T/C (dose: 60.0 mg/kg/injection, schedule: Q04DX002 (ip), vehicle: water): 97 % of control
T/C (dose: 100.0 mg/kg/injection, schedule: Q04DX002 (ip), vehicle: water): 91 % of control
T/C (dose: 120.0 mg/kg/injection, schedule: Q04DX002 (ip), vehicle: water): 100 % of control
T/C (dose: 200.0 mg/kg/injection, schedule: Q04DX002 (ip), vehicle: water): 92 % of control
T/C (dose: 240.0 mg/kg/injection, schedule: Q04DX002 (ip), vehicle: water): 100 % of control

Cc1onc(-c2ccccc2)c1C(=O)OCCOc1ccc(C(F)(F)F)cc1[N+](=O)[O-]
T/C [11]: 99 % of control
T/C [12]: 90 % of control
T/C [13]: 90 % of control

CCOC(=O)CCc1nc(C)ncc1C(=O)OCC
T/C (dose: 12.5 mg/kg/injection, schedule: Q01DX009 (ip), vehicle: saline with Tween-80): 104 % of control
T/C [14]: 106 % of control
T/C [15]: 100 % of control
T/C [9]: 91 % of control
T/C [10]: 87 % of control

CC(=O)c1cc([N+](=O)[O-])c(N)s1
T/C [16]: 111 % of control
T/C [1]: 111 % of control
T/C [2]: 95 % of control
T/C [3]: 107 % of control

C=C1C(=O)OC2CC1C(O)C/C(C)=C/CC/C(C)=C/C(O)CC2C (stereo not drawn)
T/C (dose: 6.25 mg/kg/injection, schedule: Q01DX009 (ip), vehicle: Klucel (hydroxypropylcellulose) (HPC)): 104 % of control
T/C [16]: 110 % of control
T/C [1]: 104 % of control and 112 % of control

C/C(=C/C(=O)O)c1ccc([N+](=O)[O-])cc1
T/C [11]: 94 % of control
T/C [12]: 100 % of control
T/C [13]: 101 % of control

Oc1c(Br)cc(Br)cc1/C=N/NC(=S)NC12CC3CC(CC(C3)C1)C2
T/C (dose: 30.0 mg/kg/injection, schedule: Q01DX005 (ip), vehicle: Klucel (hydroxypropylcellulose) (HPC)): 87 % of control
T/C (dose: 60.0 mg/kg/injection, schedule: Q01DX005 (ip), vehicle: Klucel (hydroxypropylcellulose) (HPC)): 87 % of control
T/C (dose: 120.0 mg/kg/injection, schedule: Q01DX005 (ip), vehicle: Klucel (hydroxypropylcellulose) (HPC)): 88 % of control and 93 % of control
T/C (dose: 240.0 mg/kg/injection, schedule: Q01DX005 (ip), vehicle: Klucel (hydroxypropylcellulose) (HPC)): 89 % of control

COc1ccc(Cc2cc3c(cc2OC)OCO3)c(OC)c1
T/C [11]: 100 % of control
T/C [12]: 108 % of control
T/C [13]: 112 % of control

C/C(=N/NC(N)=S)c1ccc2ccccc2c1
T/C (dose: 0.75 mg/kg/injection, schedule: Q01DX009 (ip), vehicle: saline with Tween-80): 109 % of control
T/C (dose: 1.5 mg/kg/injection, schedule: Q01DX009 (ip), vehicle: saline with Tween-80): 110 % of control
T/C (dose: 3.0 mg/kg/injection, schedule: Q01DX009 (ip), vehicle: saline with Tween-80): 108 % of control
T/C (dose: 5.33 mg/kg/injection, schedule: Q01DX009 (ip), vehicle: saline with Tween-80): 117 % of control
T/C (dose: 6.0 mg/kg/injection, schedule: Q01DX009 (ip), vehicle: saline with Tween-80): 121 % of control

COCOC(/C=C/C=C/CCCCOCc1ccccc1)CCC/C=C(\C)CO (stereo not drawn)
T/C (dose: 50.0 mg/kg/injection, schedule: Q01DX001 (ip), vehicle: saline with Tween-80): 104 % of control
T/C (dose: 100.0 mg/kg/injection, schedule: Q01DX001 (ip), vehicle: saline with Tween-80): 102 % of control
T/C (dose: 200.0 mg/kg/injection, schedule: Q01DX001 (ip), vehicle: saline with Tween-80): 103 % of control

CC(=O)NC(C(=O)O)C(C)SCc1ccccc1 (stereo not drawn)
T/C [15]: 100 % of control
T/C [17]: 91 % of control
T/C (dose: 200.0 mg/kg/injection, schedule: Q01DX009 (ip), vehicle: saline with Tween-80): 97 % of control

N/C(=N\O)c1c(Br)n(C2OC(CO)C(O)C2O)c2ncnc(N)c12 (stereo not drawn)
T/C [11]: 109 % of control and 122 % of control
T/C [12]: 120 % of control and 122 % of control
T/C [13]: 116 % of control
T/C (dose: 480.0 mg/kg/injection, schedule: Q01DX005 (ip), vehicle: saline with Tween-80): 114 % of control

CCOC(OCC)N(C)C
T/C (dose: 60.0 mg/kg/injection, schedule: Q01DX005 (ip), vehicle: saline): 95 % of control
T/C (dose: 120.0 mg/kg/injection, schedule: Q01DX005 (ip), vehicle: saline): 100 % of control
T/C (dose: 240.0 mg/kg/injection, schedule: Q01DX005 (ip), vehicle: saline): 93 % of control

COc1ccc(-c2coc3cc(OC4OC(CO)C(O)C(O)C4O)cc(O)c3c2=O)cc1 (stereo not drawn)
T/C [14]: 98 % of control
T/C [15]: 92 % of control
T/C [17]: 94 % of control

CN(CCc1nnnn1C)/N=C\C=N\N(C)CCc1nnnn1C
T/C (dose: 50.0 mg/kg/injection, schedule: Q01DX001 (ip), vehicle: Klucel (hydroxypropylcellulose) (HPC)): 112 % of control
T/C [7]: 112 % of control
T/C [8]: 97 % of control
